Experimental data from patent US20080293583A1, “Methods for diagnosing mood disorders” (Wyeth, priority 2003, published 2008).

How the values were obtained:
Format in all cases: in vivo
[1] = system: GLIA maturation factor beta (GMF-β); test: 2-DE proteome analysis of rat hippocampus: GMF-β; details: rat hippocampus cytosolic extract, 10 mg/kg i.p. daily 14 days, vs control; gel spot 67
Protocol: (§1) Animal dosing. Adult male Sprague Dawley rats weighing 230-320 g were housed with ad libitum access to food and water. After 1 week of habituation, rats were administered either an antidepressant or vehicle alone. The following drugs were administered intraperitoneally (i.p.): fluoxetine (10 mg/kg daily), venlafaxine (10 mg/kg daily) or vehicle alone (1 ml/kg normal saline daily) for 14 days (n=3 rats per group).
(§2) Sample preparation and cytosolic protein extraction. The animals were euthanized and hippocampi were rapidly dissected from the whole brain. Samples from each treatment group were pooled and stored at −85° C. Cytosolic extracts were prepared using the universal extraction kit from Sigma (prot-two) as follows: soluble cytoplasmic extraction reagent (S2688) was added to the hippocampal tissue (10 ml/250 mg wet weight). […]
(§3) Two-dimensional gel electrophoresis. […] Molecular masses were determined by running standard protein markers (Genomic Solutions Inc.), covering the range 10-200 kDa as well as internal verification via landmark proteins within the gel. […]
(§4) Protein fixation, silver staining and 2-D gel comparisons. […] Protein spots were outlined (first automatically and then manually) and quantified using the HT analyzer v2.2 software (Genomic Solutions Inc.). The software calculated the relative spot volume of the proteins compared with the total amount of protein in the gel. […]

[2] = system: Dihydropyrimidinase Related Protein-2 (DRP-2; CRMP-2; TOAD-64); test: 2-DE proteome analysis of rat hippocampus: DRP-2/CRMP-2; details: rat hippocampus cytosolic extract, 10 mg/kg i.p. daily 14 days, vs control; gel spot 1
Protocol: as §1, §2, §3, §4

[3] = system: Hippocampal Cholinergic Neurostimulating peptide (PEBP; HCNP; Raf kinase inhibitor protein); test: 2-DE proteome analysis of rat hippocampus: HCNP; details: rat hippocampus cytosolic extract, 10 mg/kg i.p. daily 14 days, vs control; gel spot 60
Protocol: as §1, §2, §3, §4

[4] = system: NG, NG-Dimethylarginine Dimethylaminohydrolase 1 (DDAH1); test: 2-DE proteome analysis of rat hippocampus: DDAH1; details: rat hippocampus cytosolic extract, 10 mg/kg i.p. daily 14 days, vs control; gel spot 18
Protocol: as §1, §2, §3, §4

[5] = system: Antioxidant protein 2 (calcium-independent PLA2); test: 2-DE proteome analysis of rat hippocampus: Antioxidant protein 2; details: rat hippocampus cytosolic extract, 10 mg/kg i.p. daily 14 days, vs control; gel spot 51
Protocol: as §1, §2, §3, §4

[6] = system: Ras-related protein RAB-4A; test: 2-DE proteome analysis of rat hippocampus: RAB-4A; details: rat hippocampus cytosolic extract, 10 mg/kg i.p. daily 14 days, vs control; gel spot 90 (mix)
Protocol: as §1, §2, §3, §4

[7] = system: Ras-related protein RAB-1B; test: 2-DE proteome analysis of rat hippocampus: RAB-1B; details: rat hippocampus cytosolic extract, 10 mg/kg i.p. daily 14 days, vs control; gel spot 90 (mix)
Protocol: as §1, §2, §3, §4

[8] = system: Myelin Basic Protein S (MBP S); test: 2-DE proteome analysis of rat hippocampus: MBP S; details: rat hippocampus cytosolic extract, 10 mg/kg i.p. daily 14 days, vs control; gel spot 64
Protocol: as §1, §2, §3, §4

[9] = system: Lymphotactin [precursor] (Cytokine SCM-1; Small inducible cytokine C1); test: 2-DE proteome analysis of rat hippocampus: Lymphotactin; details: rat hippocampus cytosolic extract, 10 mg/kg i.p. daily 14 days, vs control; gel spot 80
Protocol: as §1, §2, §3, §4

[10] = system: D-dopachrome tautomerase; test: 2-DE proteome analysis of rat hippocampus: D-dopachrome tautomerase; details: rat hippocampus cytosolic extract, 10 mg/kg i.p. daily 14 days, vs control; gel spot 93
Protocol: as §1, §2, §3, §4

[11] = system: Glutathione S-Transferase Yb3; test: 2-DE proteome analysis of rat hippocampus: Glutathione S-Transferase Yb3; details: rat hippocampus cytosolic extract, 10 mg/kg i.p. daily 14 days, vs control; gel spot 56
Protocol: as §1, §2, §3, §4

[12] = system: Transcription Initiation factor IIA Gamma Chain; test: 2-DE proteome analysis of rat hippocampus: TFIIA Gamma Chain; details: rat hippocampus cytosolic extract, 10 mg/kg i.p. daily 14 days, vs control; gel spot 88
Protocol: as §1, §2, §3, §4

Compound	Fold change, GLIA maturation factor beta (GMF-β) [1] [Fold change]	Fold change, Dihydropyrimidinase Related Protein-2 (DRP-2; CRMP-2; TOAD-64) [2] [Fold change]	Fold change, Hippocampal Cholinergic Neurostimulating peptide (PEBP; HCNP) [3] [Fold change]	Fold change, NG, NG-Dimethylarginine Dimethylaminohydrolase 1 (DDAH1) [4] [Fold change]	Fold change, Antioxidant protein 2 [5] [Fold change]	Fold change, Ras-related protein RAB-4A [6] [Fold change]	Fold change, Ras-related protein RAB-1B [7] [Fold change]	Fold change, Myelin Basic Protein S (MBP S) [8] [Fold change]	Fold change, Lymphotactin [precursor] [9] [Fold change]	Fold change, D-dopachrome tautomerase [10] [Fold change]	Fold change, Glutathione S-Transferase Yb3 [11] [Fold change]	Fold change, Transcription Initiation factor IIA Gamma Chain [12] [Fold change]
CNCCC(Oc1ccc(C(F)(F)F)cc1)c1ccccc1 (stereo not drawn) [Fluoxetine, fluoxetine]	3	2.6	1.9	1.6	1.6	1.5	1.5	3.1	2	2.2	0.5	2.5
COc1ccc(C(CN(C)C)C2(O)CCCCC2)cc1 (stereo not drawn) [Venlafaxine, venlafaxine]	2.7	4.1	2	2.2	1.7	1.5	1.5	3.7	1.9	2.3	0.5	2.4
